Entries after “also recorded” stand apart in the source; their conditions may differ.
Experiments:
[1] = test system: EPEC-AcsrA; experiment: BioFlux system, disruption of a mature biofilm; format: cell-based, Escherichia coli; conditions: 20 hours
Procedure: The mature biofilm was treated with FeTyr at concentrations of 100, 150 and 200 μM for 20 hours and compared to a control biofilm that had just been treated with LB medium 30% v/v. […] Mature biofilm was treated with FeDOPA at a concentration of 100 μM for 20 hours and compared to a control biofilm that had just been treated with LB medium 30% v/v.

[2] = test system: Enteropathogenic E. coli (EPEC) E2348/69; experiment: Crystal violet assay of attachment to plastic wells; format: cell-based, Escherichia coli; conditions: FeDOPA 68-250 μM; 48 hours at 37° C.
Procedure: (§1) Enteropathogenic E. coli (EPEC) E2348/69 were grown in wells for 48 hours at 37° C. in the presence of FeQ (100 μM), and in the absence of FeQ (as control). After 48 hours, the wells were washed in order to remove suspended cells. Crystal violet was then added to each well. The wells were then washed to remove excess dye. A mixture of acetone/ethanol was then added to the wells to re-suspend any cells attached to the plastic surface of the wells, and dissolve any dye present. The presence of dye in each well was then quantified by measuring the O.D. at 570 nm.
as §1, with “FeDOPA (10-250” for “FeQ (100”, “FeDOPA” for “FeQ”

[3] = test system: Enteropathogenic E. coli (EPEC) strain E2348/69; experiment: Growth curve of antibiotic resistant EPEC with gentamicin and Fe complex; format: cell-based, Escherichia coli
Procedure: The impact on the growth curve of antibiotic resistant Enteropathogenic E. coli (EPEC) strain E2348/69 (genotype Wild Type EPEC O17:H6) when grown in the presence of (i) gentamicin (1.25 μM), (ii) Fe-Tyr (100 μM), (iii) gentamicin (1.25 μM) and Fe-Tyr (1.25 μM), and (iv) a control with no gentamicin or Fe-Tyr present was determined.
(§2) The impact on the growth curve of antibiotic resistant Enteropathogenic E. coli (EPEC) strain E2348/69 (genotype Wild Type EPEC O17:H6) when grown in the presence of a fixed concentration of gentamicin (1.25 μM) and an increasing concentration of FeQ versus the strain grown in the presence of only FeQ or only gentamicin, was determined.
as §2, with “FeDOPA” for “FeQ”

[4] = test system: Campylobacter; experiment: Campylobacter carriage in chickens (cfu/g of droppings and caeca samples); format: in vivo; conditions: treatment groups 3, 5, 6, 7 (FeQ) and 8 (FeTyr), days 0-42; dirty litter challenge
Procedure: A study was performed to evaluate growth promotion and reduction of Campylobacter carriage using FeQ and FeTyr in Ross 308 male broilers with 7 treatment groups. Each treatment group comprised four replicates of 10 birds per pen (40 birds/treatment group and 4 pens of 10 birds/treatment group), and there were 2 control groups and 5 test groups. All the test groups and one of the control groups were exposed at day 20 of the trial to dirty litter, which tested positive for Campylobacter. This method was used to provide a more natural method to Campylobacter challenge the birds. Thus there was a positive control where one treatment group was challenged with Campylobacter and one negative control group where the birds were not challenged, and five treatment groups that were all challenged with Campylobacter. The total number of birds used in the 7 treatment groups was 280. Treatment group 1 was a negative control where birds just received the commercial feed, and were not challenged with dirty litter containing Campylobacter. Treatment group 2 was the positive control where the birds received the commercial feed, and were challenged with dirty litter containing Campylobacter at day 20. Treatment group 3 received 0.22 g/L of FeQ in their drinking water and 0.22 g/Kg FeQ in their feed during the entire trial, and was challenged with dirty litter containing Campylobacter at day 20. Treatment group 5 received 0.22 g/L of FeQ in their drinking water during the entire trial, and was challenged with dirty litter containing Campylobacter at day 20. Treatment group 6 received 0.22 g/kg FeQ in their feed during the entire trial, and was challenged with dirty litter containing Campylobacter at day 20. […]
Prior to challenging the chickens with dirty litter containing Campylobacter at day 20, each pen was tested for Campylobacter using cloacal swabs. […] Samples were analyzed for blood chemistry, including analysis for alkaline phosphatase, aspartate amino transferase, alanine amino transferase, gamma-glutamyl transferase, lactate dehydrogenase, total protein, albumin, globulin, amylase and glucose.

[5] = Growth performance of broilers challenged with Campylobacter dirty litter at day 20; format: in vivo, chicken (Ross 308 male broilers); conditions: treatment groups 3, 5, 6, 7 (FeQ) and 8 (FeTyr)
Procedure: A study was performed to evaluate growth promotion and reduction of Campylobacter carriage using FeQ and FeTyr in Ross 308 male broilers with 7 treatment groups. Each treatment group comprised four replicates of 10 birds per pen (40 birds/treatment group and 4 pens of 10 birds/treatment group), and there were 2 control groups and 5 test groups. All the test groups and one of the control groups were exposed at day 20 of the trial to dirty litter, which tested positive for Campylobacter. This method was used to provide a more natural method to Campylobacter challenge the birds. Thus there was a positive control where one treatment group was challenged with Campylobacter and one negative control group where the birds were not challenged, and five treatment groups that were all challenged with Campylobacter. The total number of birds used in the 7 treatment groups was 280. Treatment group 1 was a negative control where birds just received the commercial feed, and were not challenged with dirty litter containing Campylobacter. Treatment group 2 was the positive control where the birds received the commercial feed, and were challenged with dirty litter containing Campylobacter at day 20. Treatment group 3 received 0.22 g/L of FeQ in their drinking water and 0.22 g/Kg FeQ in their feed during the entire trial, and was challenged with dirty litter containing Campylobacter at day 20. Treatment group 5 received 0.22 g/L of FeQ in their drinking water during the entire trial, and was challenged with dirty litter containing Campylobacter at day 20. Treatment group 6 received 0.22 g/kg FeQ in their feed during the entire trial, and was challenged with dirty litter containing Campylobacter at day 20. Treatment group 7 received 0.022 g/L FeQ in their drinking water during the entire trial, and was challenged with dirty litter containing Campylobacter at day 20. Treatment group 8 received 0.02 g/L FeTyr in their drinking water during the entire trial, and was challenged with dirty litter containing Campylobacter at day 20. The FeTyr was pre-dissolved in DMSO, and diluted to provide a solution of 0.02 g/L of FeTyr in water. (An additional treatment group 4 was terminated due to solubility issues.) […]
The feeding program is show in Table 4. […] All birds were weighed individually and feed weigh backs recorded per pen at day 0, 11, 21, 24 and 42 days.
In order to minimize risk of cross-contamination, standard industry biosecurity measures were used including: disinfecting boots, changing overshoes and gloves between pens/treatments, entering Campylobacter negative pens before entering Campylobacter positive pens, and leaving adjacent pens empty. Daily health, culls, and mortality were recorded. All bird weights were recorded at 0, 11, 21, 24, 33 and 42 days. […]

[6] = test system: EPEC-pgA^++; experiment: Crystal violet assay of disruption of a mature biofilm; format: cell-based, Escherichia coli; conditions: FeTyr 100, 150 and 200 μM; 72 hours
Procedure: A mature biofilm formed by EPEC-pgA^++ was treated with FeTyr for 24, 48 and 72 hours at FeTyr concentrations of 100 μM, 150 μM and 200 μM and the presence of the biofilm after these times was compared to an untreated biofilm (labeled “Control”) using a crystal violet assay. The color of the control wells was more intense in color at 72 hours than those that were treated with FeTyr at 100, 150 and 200 μM for 72 hours.

[7] = test system: mixed population of clinical isolates (PAO Mixed); experiment: Growth (OD600) in LB with Amikacin, tolerance to antibiotic; format: cell-based, Pseudomonas aeruginosa; conditions: 34, 100, 200 and 340 μM of FeQ or FePhe; Amikacin 10 µg/ml; 17.5 hours at 37° C.
Procedure: (§3) To investigate effects upon antibiotic resistance, a laboratory strain of Psuedomonas aeruginosa (PAO1N) and a mixed population of clinical isolates (PAO Mixed) were incubated in Luria-Bertani (LB) media alone, or with different concentrations (34 μM, 100 μM, 200 μM and 340 μM) of FeQ or FePhe.
(§4) Each of the different media, bar one control, contained 10 µg/ml of the aminoglycoside antibiotic Amikacin.
(§5) 10 μl of the bacterial strains were added into each well of a 96-well micro-titer plate, before 290 μl of the relevant media was added to wells. Each different condition was repeated in sextuplicate.
(§6) The plate was incubated at 37° C. within a micro-titer plate reader for 17.5 hours, with the OD600 read every 30 minutes.

[8] = test system: Psuedomonas aeruginosa (PAO1N); experiment: as above; format: cell-based, Pseudomonas aeruginosa; conditions: 34, 100, 200 and 340 μM of FeQ or FePhe; Amikacin 10 µg/ml; 17.5 hours at 37° C.
Procedure: as §3, §4, §5, §6

In the case of `O=C1[O][Fe]23([NH]C1Cc1ccc(O)c(O)c1)([NH]C(Cc1ccc(O)c(O)c1)C(=O)[O]2)[NH]C(Cc1ccc(O)c(O)c1)C(=O)[O]3` [FeDOPA, a complex of L-DOPA with Fe III (3,4 dihydrophenylalanine)], the “dispersion of mature biofilm” value ([1]; FeDOPA 100 μM) is reported as “dispersed the biofilm”, the “attachment of EPEC cells to plastic well surface and biofilm formation (crystal violet, O.D. 570 nm)” value [2] is reported as “inhibited” and the “rate of growth relative to gentamicin alone” value ([3]; gentamicin 1.25 μM and FeDOPA 130, 160, 200 μM) is reported as “inhibited”.

With `O=C1[O][Fe]23([NH]C1Cc1ccc(O)cc1)([NH]C(Cc1ccc(O)cc1)C(=O)[O]2)[NH]C(Cc1ccc(O)cc1)C(=O)[O]3` [FeTyr, a complex of L-tyrosine with Fe III] the “dispersion of mature biofilm” value ([1]; FeTyr 100, 150 and 200 μM) was “biofilm dispersion increased”, the “average Campylobacter cfu/g of caeca samples at day 42 versus positive control” value [4] was “lower levels of Campylobacter in their caeca; also recorded: performed better than the positive control” and the “ABW at day 42 versus positive control (challenged, untreated)” value [5] was “performed better than the positive control”. For the same compound, the “MFCR at day 42 versus positive control (challenged, untreated)” value [5] was “performed better than the positive control”, the “optical absorbance of crystal violet at 570 nm of remaining mature biofilm versus untreated” value [6] was “significantly lower optical absorbance” and the “rate of growth (growth curve)” value ([3]; Fe-Tyr 100 μM alone) was “comparable to the control”. For the same compound, the “rate of growth relative to gentamicin alone” value ([3]; gentamicin 1.25 μM and Fe-Tyr 1.25 μM) was “loses its resistance; also recorded: inhibited”.

For “A complex of L-phenylalanine with Fe III [Fe-Phe]”, the “tolerance to the aminoglycoside Amikacin (OD600 growth)” value [7] was “reducing tolerance” and the “tolerance to the aminoglycoside Amikacin (OD600 growth)” value [8] was “reducing tolerance”.
